Test [1] deals with T1, human ROCK2 catalytic domain (Homo sapiens, UniProt O75116).
T1 construct: made in house; host or cells: Sf9 insect cells
Kind of test: ROCK2 inhibitory activity: peptide phosphorylation, IMAP fluorescence polarization. It counts as biochemical. Particulars: for pIC50: His-tagged human ROCK2, 100 nM peptide substrate, 5 μM ATP, 30° C., 150 minutes; for Selectivity of NIK over ROCK2: IC50 for ROCK2 divided by IC50 for NIK. The text has this:
cDNA of N-terminal His-tagged human ROCK2 catalytic domain [11-552 amino acids of accession number NP_00004841.2] was integrated into an expression vector, which was then highly expressed in sf9 cells. The sf9 cells were harvested and lysed, and then the His-tagged human ROCK2 protein was applied onto HisTrap HP (GE Healthcare) and eluted from the column with imidazole. The active fractions were desalted with a desalting column (PD-10, GE Healthcare) to give a purified enzyme.
For measurement of the activity of ROCK2, the substrate used was a synthetic peptide (5-FAM (5-carboxyfluorescein)-Ala-Lys-Arg-Arg-Arg-Leu-Ser-Ser-Leu-Arg-Ala-OH) (SEQ.ID.NO.:2) (Trauger J W. et. al, Biochemistry, 41, 8948-8953 (2002)), which was custom-made by JPT Peptide Technologies GmbH.
For detection of phosphorylation of the substrate, IMAP® technology (Molecular Devices, Co. Ltd.) (Gaudet E W. et. al, J. Biomol. Screen, 8, 164-175(2003)) was used.
The phosphorylation reaction was conducted using 384 well plate, and the reaction volume was 10.5 μL/well. The reaction buffer is comprised of 50 mM Tris-chloride buffer (pH 7.5), 10 mM magnesium acetate, 1 mM O,O′-Bis(2-aminoethyl)ethyleneglycol-N,N,N′,N′-tetraacetic acid (EGTA) and 1 mM dithiothreitol. Thereto, the purified ROCK2 protein, 100 nM of the peptide substrate, and 5 μM of adenosine 5′-triphosphate were added, and then the reaction was carried out at 30° C. for 150 minutes.
Thereafter, in order to terminate and detect the reaction, 30 μL of the IMAP (registered trademark) binding reagent (IMAP Progressive Binding Reagent) that had been diluted (1:500) in the 1× IMAP binding buffer A (IMAP Progressive Binding Buffer A, 5× stock) was added to each well. The solution stood still for 30 minutes in the dark, and then fluorescence polarization was measured using a high-end microplate reader (excitation wavelength: 485 nm; emission wavelength: 520 nm).
The compound to be tested was diluted in dimethylsulfoxide (DMSO) and then 0.5 μL of this solution was added to each well. Each control well was provided by adding 0.5 μL of DMSO to the well in place of the DMSO solution containing the compound to be tested. In Table 3, the selectivity of NIK over ROCK2 was calculated by dividing the value of IC50 for ROCK2 by the value of IC50 for NIK.

The target of another test is T2, Truncated human NIK (Homo sapiens, UniProt Q99558).
T2 construct: made in house; host or cells: Sf9 insect cells (baculovirus)
Nature of the test: NIK inhibitory activity: SRPKtide phosphorylation with [γ-33P] ATP, filter plate. It counts as biochemical. As to conditions: GST-tagged truncated human NIK, 20 μM peptide substrate, 10 μM ATP, 25° C., 240 minutes. An excerpt:
Truncated human NIK [319-947(end) amino acids of accession number AAH35576] was expressed in sf9 cells as N-terminus gluthatione-S-transferase (GST)-tagged protein using baculovirus expression system. The sf9 cells were harvested and lysed, and then the GST-tagged human NIK protein was applied onto a glutathione column (GSTrap, GE Healthcare) and eluted from the column with reduced glutathione. The active fractions were desalted with a desalting column (PD-10, GE Healthcare) to give a purified enzyme.
For measurement of the activity of NIK, the SRPKtide peptide (Arg-Ser-Arg-Ser-Arg-Ser-Arg-Ser-Arg-Ser-Arg-Ser-Arg-Ser-Arg-NH2) (SEQ.ID.NO.:1) was synthesized as a substrate, as described above.
The phosphorylation reaction was conducted using 384 well plate, and the reaction volume was 10.5 μL/well. The reaction buffer is comprised of 10 mM 3-Morpholinopropanesulfonic acid buffer (pH 7.4), 5 mM magnesium chloride, 1 mM O,O′-Bis (2-aminoethyl) ethyleneglycol-N,N,N′,N′-tetraacetic acid (EGTA) and 1 mM dithiothreitol. Thereto, the purified NIK protein, 20 μM of the peptide substrate, 10 μM of adenosine 5′-triphosphate (ATP) and 0.5 μCi [γ-33P] ATP solution were added, and then the reaction was carried out at 25° C. for 240 minutes. The [γ-33P]-labeled ATP was purchased from PerkinElmer Inc.
After the termination of the reaction by adding 20 μL of 350 mM phosphoric acid (H3PO4), the substrate peptide was adsorbed on a filter plate (Millipore Multiscreen, MZPHN0W50). The substrate-bound filter plate was washed with 130 mM phosphoric acid for several times and then 8 μL of Microscinti-O (PerkinElmer Inc.) was added to the each well. The radiation activity of the peptide was measured with TopCount NXT Microscintillation Counter (PerkinElmer Inc.).
The compound to be tested was diluted in dimethylsulfoxide (DMSO) and then 0.5 μL of this solution was added to each well. Each control well was provided by adding 0.5 μL of DMSO to the well in place of the DMSO solution containing the compound to be tested.

In test [2] the target is T3, human NIK (U-2 OS Tet-On-NIK cells) (Homo sapiens, UniProt Q99558).
T3 construct: expressed in transfected cells; host or cells: U-2 OS Tet-On cells carrying NF-kappa B reporter genes, stably transfected with pTRE2hyg-NIK
Nature of the test: Cellular NIK inhibitory activity using ELISA-based IKKalpha phosphorylation assay. It counts as cell-based. As to conditions: NIK dependent IKKalpha phosphorylation, doxycycline 2 micrograms/ml, 24 hours. Here is the method: NF-kappa B reporter genes (Clontech Laboratories, Inc.) was introduced into U-2 OS Tet-On cell line (Clontech Laboratories, Inc.) by the co-transfection with puromycin resistance gene (Clontech Laboratories, Inc.). […] NIK protein expression in this established cells (U-2 OS Tet-On-NIK) was controlled in a doxycycline dependent manner. The cells were cultured in DMEM containing 10% FBS, 100 units/ml of penicillin, 0.1 mg of streptomycin sulfate, 100 microgram/ml of hygromycin and 1 microgram/ml of puromycin (Growth medium).
U-2 OS Tet-On-NIK cells were plated on 96-well plate (Nunc) at 20000 cells per well and were incubated overnight at 37° C. in 5% CO2-95% air. The tested compound was diluted in dimethylsulfoxide (DMSO) and further diluted with a growth medium. Then the compound solution and doxycycline (Clontech Laboratories, Inc.) solution (final working concentration is 2 micrograms/ml) were simultaneously added to the each well. […]
Rabbit anti-IKKalpha [pSpS176/180] phosphospecific antibody (Biosource International, Inc.) or rabbit anti-IKKalpha antibody (Abcam, Inc.) was incubated on wells of an MAXISORP ELISA plate (Nunc) at 4° C. for overnight. […] After stopping HRP-reactions (SureBlue Reserve™ TMB substrate, Kirkegaard & Perry Laboratories, Inc.) by 1N hydrochloric acid, the optical density in each well was determined using a SpectraMax Plus 384 (Molecular Devices Corporation) at 450 nm.
Cellular NIK inhibitory activity of the test compound was represented as IC50 value determined by the following procedure.
Optical density of phospho-IKKalpha in each sample was normalized using the ratio of phospho-IKKalpha to total IKKalpha. The % of Control value was calculated by the following equation. […]
Then the IC50 value for NIK dependent IKKalpha phosphorylation was determined.

pIC50: −log10 of the molar value.

As a reminder, the pIC50 is the IC50 on a negative log10 scale, so that one unit is a factor of ten. Read a high pIC50 as a small IC50.

T2 sequence (Q99558 319-947): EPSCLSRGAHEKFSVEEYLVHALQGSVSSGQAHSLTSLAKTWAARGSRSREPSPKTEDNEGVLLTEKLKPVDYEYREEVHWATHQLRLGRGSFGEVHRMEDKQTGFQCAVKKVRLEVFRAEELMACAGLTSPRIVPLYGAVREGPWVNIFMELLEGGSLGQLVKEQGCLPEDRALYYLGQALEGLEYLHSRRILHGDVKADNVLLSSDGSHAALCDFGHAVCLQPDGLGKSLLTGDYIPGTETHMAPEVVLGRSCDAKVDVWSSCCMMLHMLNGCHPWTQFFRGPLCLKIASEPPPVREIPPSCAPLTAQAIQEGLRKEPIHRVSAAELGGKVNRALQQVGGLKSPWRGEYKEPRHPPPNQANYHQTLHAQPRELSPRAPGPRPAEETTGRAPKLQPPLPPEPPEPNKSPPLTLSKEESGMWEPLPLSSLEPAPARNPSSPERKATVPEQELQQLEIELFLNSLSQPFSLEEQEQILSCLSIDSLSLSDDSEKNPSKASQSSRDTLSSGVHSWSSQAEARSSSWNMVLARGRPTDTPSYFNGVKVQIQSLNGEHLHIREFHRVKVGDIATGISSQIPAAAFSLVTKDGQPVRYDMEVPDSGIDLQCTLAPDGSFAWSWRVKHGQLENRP
T3 sequence (Q99558 whole entry): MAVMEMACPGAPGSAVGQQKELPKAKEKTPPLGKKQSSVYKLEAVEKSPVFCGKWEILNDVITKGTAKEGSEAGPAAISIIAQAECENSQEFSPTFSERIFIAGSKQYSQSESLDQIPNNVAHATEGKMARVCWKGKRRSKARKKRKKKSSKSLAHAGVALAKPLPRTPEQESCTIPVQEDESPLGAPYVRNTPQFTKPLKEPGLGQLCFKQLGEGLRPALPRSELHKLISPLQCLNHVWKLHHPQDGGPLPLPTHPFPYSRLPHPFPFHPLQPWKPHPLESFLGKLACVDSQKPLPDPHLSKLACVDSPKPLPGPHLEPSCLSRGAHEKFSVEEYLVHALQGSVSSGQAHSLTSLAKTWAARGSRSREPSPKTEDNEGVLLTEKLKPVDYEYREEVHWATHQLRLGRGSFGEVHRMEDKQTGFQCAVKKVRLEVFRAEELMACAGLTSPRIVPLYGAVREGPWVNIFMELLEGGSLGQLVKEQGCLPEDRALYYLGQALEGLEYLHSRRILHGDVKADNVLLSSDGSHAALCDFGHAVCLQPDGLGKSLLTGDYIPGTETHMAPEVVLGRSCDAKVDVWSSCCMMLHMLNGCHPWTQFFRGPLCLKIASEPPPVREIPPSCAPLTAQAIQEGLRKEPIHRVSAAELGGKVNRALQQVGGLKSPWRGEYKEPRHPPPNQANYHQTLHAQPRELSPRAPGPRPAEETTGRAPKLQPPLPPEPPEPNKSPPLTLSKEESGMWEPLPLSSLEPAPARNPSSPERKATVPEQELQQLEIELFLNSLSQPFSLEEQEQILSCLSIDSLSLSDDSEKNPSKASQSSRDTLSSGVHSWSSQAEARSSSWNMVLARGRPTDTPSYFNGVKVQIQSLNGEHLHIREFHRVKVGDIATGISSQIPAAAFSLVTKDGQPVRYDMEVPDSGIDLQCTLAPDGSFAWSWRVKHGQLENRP
T1 sequence (O75116 11-552): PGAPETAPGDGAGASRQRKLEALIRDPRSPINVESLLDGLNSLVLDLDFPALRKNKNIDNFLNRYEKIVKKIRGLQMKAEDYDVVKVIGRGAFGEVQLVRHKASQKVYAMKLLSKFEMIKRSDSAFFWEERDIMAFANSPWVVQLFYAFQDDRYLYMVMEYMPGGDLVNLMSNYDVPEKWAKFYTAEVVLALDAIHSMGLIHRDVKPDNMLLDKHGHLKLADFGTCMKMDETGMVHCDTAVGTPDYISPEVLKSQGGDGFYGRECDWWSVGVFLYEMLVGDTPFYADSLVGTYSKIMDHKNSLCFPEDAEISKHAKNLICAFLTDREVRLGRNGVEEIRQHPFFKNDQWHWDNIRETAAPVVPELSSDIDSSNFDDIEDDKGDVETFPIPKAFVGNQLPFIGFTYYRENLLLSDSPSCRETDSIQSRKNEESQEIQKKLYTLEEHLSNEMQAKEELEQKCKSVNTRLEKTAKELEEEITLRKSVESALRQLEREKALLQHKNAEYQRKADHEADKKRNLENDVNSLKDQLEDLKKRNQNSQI

Regarding `CC(C)n1cc(-c2ccnc(Nc3ccccc3)n2)c2ccncc21` [Example 3, [4-(1-Isopropyl-1H-pyrrolo[2,3-c]pyridin-3-yl)-pyrimidin-2-yl]-phenyl-amine], in test [1], the pIC50 was 7.07 and the “Selectivity of NIK over ROCK2” value was 0.20. This molecule also gave a pIC50 on Truncated human NIK of 6.37.
In the case of `CNC(=O)c1ccc(OC)c(Nc2nccc(-c3cn(C(C)C)c4cnccc34)n2)c1` [Example 71, 3-[4-(1-Isopropyl-1H-pyrrolo[2,3-c]pyridin-3-yl)-pyrimidin-2-ylamino]-4-methoxy-N-methyl-benzamide], the pIC50 in test [1] is 5.34; in test [2], 6.70; against Truncated human NIK, 7.58. Besides, in test [1], the “Selectivity of NIK over ROCK2” value is recorded as 173.3.
Take `Cc1ccc(C(N)=O)cc1Nc1nccc(-c2cn(C(C)C)c3cnccc23)n1` [Example 85, 3-[4-(1-Isopropyl-1H-pyrrolo[2,3-c]pyridin-3-yl)-pyrimidin-2-ylamino]-4-methyl-benzamide]: the pIC50 in test [1] is 5.59; in test [2], 6.85; against Truncated human NIK, 7.20. In addition, the “Selectivity of NIK over ROCK2” value in test [1] was 40.9.
For the molecule `CC(C)n1cc(-c2ccnc(Nc3cc(C(N)=O)ccc3OCc3ccccc3)n2)c2ccncc21` [Example 94, 4-Benzyloxy-3-[4-(1-isopropyl-1H-pyrrolo[2,3-c]pyridin-3-yl)-pyrimidin-2-ylamino]-benzamide], the pIC50 was 6.00 in test [1], 6.64 in test [2] and 7.07 against Truncated human NIK. Besides, the “Selectivity of NIK over ROCK2” value in test [1] came out at 11.9.

The values above are taken from patent US20110183975A1, “NOVEL 6-AZAINDOLE AMINOPYRIMIDINE DERIVATIVES HAVING NIK INHIBITORY ACTIVITY” (priority 2008, published 2011).
